Patent US10004701B2, “Methods and compositions for treating infection” (UNIVERSITY OF ROCHESTER, priority 2012, dated 2018)
Counter-ions that a name gives are not always drawn. Like-named read-outs stand apart in the source and are kept apart here.

Experiments:
Experiment in all cases: AK assay 384-well format, Prestwick library screening
[1] = test system: K. pneumoniae; format: cell-based, Klebsiella pneumoniae; conditions: 50 μM final drug concentration; for fold induction at 50 µM: Klebsiella pneumoniae, 3 h
[2] = test system: E. coli; format: cell-based, Escherichia coli; conditions: 50 μM final drug concentration; for fold induction at 50 µM: Escherichia coli, 3 h
[3] = test system: E. faecium; format: cell-based, Enterococcus faecium; conditions: 50 μM final drug concentration; for fold induction at 50 µM: Enterococcus faecium, 3 h
[4] = test system: A. baumannii strain 98-37-09; format: cell-based, Acinetobacter baumannii; conditions: 50 μM final drug concentration; for fold induction at 50 µM: Acinetobacter baumannii, 983709, 3 h
[5] = test system: P. aeruginosa; format: cell-based, Pseudomonas aeruginosa; conditions: 50 μM final drug concentration; for fold induction at 50 µM: Pseudomonas aeruginosa, 3 h
[6] = test system: E. cloacae; format: cell-based, Enterobacter cloacae; conditions: 50 μM final drug concentration; for fold induction at 50 µM: Enterobacter cloacae, 3 h
[7] = test system: S. aureus strain USA300-0114; format: cell-based, Staphylococcus aureus; conditions: 50 μM final drug concentration; for fold induction at 50 µM: Staphylococcus aureus, USA300, 3 h
[8] = planktonic, cutoff for positive-scoring molecules 3-fold increase, read-out: AK-based Prestwick Library Screening Results, K. pneumoniae (fold increase in extracellular AK activity)
[9] = planktonic, cutoff for positive-scoring molecules 3-fold increase, read-out: AK-based Prestwick Library Screening Results, E. coli (fold increase in extracellular AK activity)
[10] = planktonic, cutoff for positive-scoring molecules 3-fold increase, read-out: AK-based Prestwick Library Screening Results, E. faecium (fold increase in extracellular AK activity)
[11] = planktonic, cutoff for positive-scoring molecules 3-fold increase, read-out: AK-based Prestwick Library Screening Results, A. baumannii (fold increase in extracellular AK activity)
[12] = planktonic, cutoff for positive-scoring molecules 3-fold increase, read-out: AK-based Prestwick Library Screening Results, P. aeruginosa (fold increase in extracellular AK activity)
[13] = planktonic, cutoff for positive-scoring molecules 3-fold increase, read-out: AK-based Prestwick Library Screening Results, E. cloacae (fold increase in extracellular AK activity)
[14] = planktonic, cutoff for positive-scoring molecules 3-fold increase, read-out: AK-based Prestwick Library Screening Results, S. aureus (fold increase in extracellular AK activity)
[15] = 384-well format, cutoff for positive-scoring molecules 3-fold increase
[16] = planktonic K. pneumoniae, 384-well, cutoff for positive-scoring molecules 3-fold increase, read-out: AK-based Prestwick Library Screening Results: K. pneumoniae (increase in extracellular AK activity)
[17] = planktonic E. coli, 384-well, cutoff for positive-scoring molecules 3-fold increase, read-out: AK-based Prestwick Library Screening Results: E. coli (increase in extracellular AK activity)
[18] = planktonic E. faecium, 384-well, cutoff for positive-scoring molecules 3-fold increase, read-out: AK-based Prestwick Library Screening Results: E. faecium (increase in extracellular AK activity)
[19] = planktonic A. baumannii, 384-well, cutoff for positive-scoring molecules 3-fold increase, read-out: AK-based Prestwick Library Screening Results: A. baumannii (increase in extracellular AK activity)
[20] = planktonic P. aeruginosa, 384-well, cutoff for positive-scoring molecules 3-fold increase, read-out: AK-based Prestwick Library Screening Results: P. aeruginosa (increase in extracellular AK activity)
[21] = planktonic E. cloacae, 384-well, cutoff for positive-scoring molecules 3-fold increase, read-out: AK-based Prestwick Library Screening Results: E. cloacae (increase in extracellular AK activity)
[22] = planktonic S. aureus, 384-well, cutoff for positive-scoring molecules 3-fold increase, read-out: AK-based Prestwick Library Screening Results: S. aureus (increase in extracellular AK activity)

Structure (SMILES): Nc1ccc(C(=O)NCC(=O)O)cc1 [Aminohippuric acid]
- fold induction at 50 µM [1, 8]: 0.6
- fold induction at 50 µM [2, 9]: 0.7
- fold induction at 50 µM [3, 10]: 0.9
- fold induction at 50 µM [4, 11]: 0.7
- fold induction at 50 µM [5, 12]: 0.7
- fold induction at 50 µM [6, 13]: 0.8
- fold induction at 50 µM [7, 14]: 0.6

Structure (SMILES): Cn1c(=O)c2[nH]cnc2n(C)c1=O [Aminophylline]
- fold induction at 50 µM [1, 8]: 0.6
- fold induction at 50 µM [2, 9]: 0.6
- fold induction at 50 µM [3, 10]: 0.9
- fold induction at 50 µM [4, 11]: 0.7
- fold induction at 50 µM [5, 12]: 0.8
- fold induction at 50 µM [6, 13]: 0.8
- fold induction at 50 µM [7, 14]: 0.6

Structure (SMILES): c1ccc(CNc2ncnc3[nH]cnc23)cc1 [Aminopurine, 6-benzyl]
- AK-based Prestwick Library Screening Results, K. pneumoniae (increase in extracellular AK activity) [1, 15]: 0.8
- AK-based Prestwick Library Screening Results, E. coli (increase in extracellular AK activity) [2, 15]: 0.9
- AK-based Prestwick Library Screening Results, E. faecium (increase in extracellular AK activity) [3, 15]: 0.9
- AK-based Prestwick Library Screening Results, A. baumannii (increase in extracellular AK activity) [4, 15]: 0.8
- AK-based Prestwick Library Screening Results, P. aeruginosa (increase in extracellular AK activity) [5, 15]: 0.9
- AK-based Prestwick Library Screening Results, E. cloacae (increase in extracellular AK activity) [6, 15]: 1.1
- AK-based Prestwick Library Screening Results, S. aureus (increase in extracellular AK activity) [7, 15]: 0.7

Structure (SMILES): CCCCc1oc2ccccc2c1C(=O)c1cc(I)c(OCCN(CC)CC)c(I)c1 [Amiodarone hydrochloride]
- fold induction at 50 µM [1, 16]: 0.6
- fold induction at 50 µM [2, 17]: 0.7
- fold induction at 50 µM [3, 18]: 1.7
- fold induction at 50 µM [4, 19]: 2.2
- fold induction at 50 µM [5, 20]: 0.5
- fold induction at 50 µM [6, 21]: 0.5
- fold induction at 50 µM [7, 22]: 0.7

Structure (SMILES): CN(C)CCCO[C@@H]1[C@H]2OC(C)(C)O[C@H]2O[C@@H]1[C@H](O)CO [Amiprilose hydrochloride]
- fold induction at 50 µM ([1]; cutoff for positive-scoring molecules 3-fold increase, read-out: AK-based Prestwick Library Screening Results, K. pneumoniae (fold increase in extracellular AK activity)): 0.9
- fold induction at 50 µM ([2]; cutoff for positive-scoring molecules 3-fold increase, read-out: AK-based Prestwick Library Screening Results, E. coli (fold increase in extracellular AK activity)): 1.3
- fold induction at 50 µM ([3]; cutoff for positive-scoring molecules 3-fold increase, read-out: AK-based Prestwick Library Screening Results, E. faecium (fold increase in extracellular AK activity)): 1.1
- fold induction at 50 µM ([4]; cutoff for positive-scoring molecules 3-fold increase, read-out: AK-based Prestwick Library Screening Results, A. baumannii (fold increase in extracellular AK activity)): 1.2
- fold induction at 50 µM ([5]; cutoff for positive-scoring molecules 3-fold increase, read-out: AK-based Prestwick Library Screening Results, P. aeruginosa (fold increase in extracellular AK activity)): 1.1
- fold induction at 50 µM ([6]; cutoff for positive-scoring molecules 3-fold increase, read-out: AK-based Prestwick Library Screening Results, E. cloacae (fold increase in extracellular AK activity)): 1.5
- fold induction at 50 µM ([7]; cutoff for positive-scoring molecules 3-fold increase, read-out: AK-based Prestwick Library Screening Results, S. aureus (fold increase in extracellular AK activity)): 1.3

Structure (SMILES): CN(C)CCC=C1c2ccccc2CCc2ccccc21.Cl [Amitryptiline hydrochloride]
- AK-based Prestwick Library Screening Results: K. pneumoniae (increase in extracellular AK activity) ([1]; planktonic K. pneumoniae, 384-well, […]): 1.1
- AK-based Prestwick Library Screening Results: E. coli (increase in extracellular AK activity) ([2]; planktonic E. coli, 384-well, […]): 1.2
- AK-based Prestwick Library Screening Results: E. faecium (increase in extracellular AK activity) ([3]; planktonic E. faecium, 384-well, […]): 1.0
- AK-based Prestwick Library Screening Results: A. baumannii (increase in extracellular AK activity) ([4]; planktonic A. baumannii, 384-well, […]): 1.3
- AK-based Prestwick Library Screening Results: P. aeruginosa (increase in extracellular AK activity) ([5]; planktonic P. aeruginosa, 384-well, […]): 1.0
- AK-based Prestwick Library Screening Results: E. cloacae (increase in extracellular AK activity) ([6]; planktonic E. cloacae, 384-well, […]): 1.8
- AK-based Prestwick Library Screening Results: S. aureus (increase in extracellular AK activity) ([7]; planktonic S. aureus, 384-well, […]): 1.4

Structure (SMILES): CCN(CC)Cc1cc(Nc2ccnc3cc(Cl)ccc23)ccc1O [Amodiaquin dihydrochloride dihydrate]
- fold induction at 50 µM [1, 16]: 0.9
- fold induction at 50 µM [2, 17]: 1.2
- fold induction at 50 µM [3, 18]: 1.1
- fold induction at 50 µM [4, 19]: 1.5
- fold induction at 50 µM [5, 20]: 1.2
- fold induction at 50 µM [6, 21]: 1.4
- fold induction at 50 µM [7, 22]: 1.3

Structure (SMILES): Clc1ccc2c(c1)C(N1CCNCC1)=Nc1ccccc1O2 [Amoxapine]
- fold induction at 50 µM ([1]; 384-well format, cutoff for positive-scoring molecules 3-fold increase, read-out: AK-based Prestwick Library Screening Results, K. pneumoniae (increase in extracellular AK activity)): 0.8
- fold induction at 50 µM ([2]; 384-well format, cutoff for positive-scoring molecules 3-fold increase, read-out: AK-based Prestwick Library Screening Results, E. coli (increase in extracellular AK activity)): 1
- fold induction at 50 µM ([3]; 384-well format, cutoff for positive-scoring molecules 3-fold increase, read-out: AK-based Prestwick Library Screening Results, E. faecium (increase in extracellular AK activity)): 0.9
- fold induction at 50 µM ([4]; 384-well format, cutoff for positive-scoring molecules 3-fold increase, read-out: AK-based Prestwick Library Screening Results, A. baumannii (increase in extracellular AK activity)): 0.8
- fold induction at 50 µM ([5]; 384-well format, cutoff for positive-scoring molecules 3-fold increase, read-out: AK-based Prestwick Library Screening Results, P. aeruginosa (increase in extracellular AK activity)): 0.9
- fold induction at 50 µM ([6]; 384-well format, cutoff for positive-scoring molecules 3-fold increase, read-out: AK-based Prestwick Library Screening Results, E. cloacae (increase in extracellular AK activity)): 0.9
- fold induction at 50 µM ([7]; 384-well format, cutoff for positive-scoring molecules 3-fold increase, read-out: AK-based Prestwick Library Screening Results, S. aureus (increase in extracellular AK activity)): 0.7

Structure (SMILES): CC1(C)S[C@@H]2[C@H](NC(=O)[C@H](N)c3ccc(O)cc3)C(=O)N2[C@H]1C(=O)O [Amoxicillin]
- fold induction at 50 µM ([1]; planktonic K. pneumoniae, cutoff for positive-scoring molecules 3-fold increase, read-out: AK-based Prestwick Library Screening Results, K. pneumoniae (increase in extracellular AK activity)): 0.7
- fold induction at 50 µM ([2]; planktonic E. coli, cutoff for positive-scoring molecules 3-fold increase, read-out: AK-based Prestwick Library Screening Results, E. coli (increase in extracellular AK activity)): 10.6
- fold induction at 50 µM ([3]; planktonic E. faecium, cutoff for positive-scoring molecules 3-fold increase, read-out: AK-based Prestwick Library Screening Results, E. faecium (increase in extracellular AK activity)): 1.4
- fold induction at 50 µM ([4]; planktonic A. baumannii, cutoff for positive-scoring molecules 3-fold increase, read-out: AK-based Prestwick Library Screening Results, A. baumannii (increase in extracellular AK activity)): 1.7
- fold induction at 50 µM ([5]; planktonic P. aeruginosa, cutoff for positive-scoring molecules 3-fold increase, read-out: AK-based Prestwick Library Screening Results, P. aeruginosa (increase in extracellular AK activity)): 0.7
- fold induction at 50 µM ([6]; planktonic E. cloacae, cutoff for positive-scoring molecules 3-fold increase, read-out: AK-based Prestwick Library Screening Results, E. cloacae (increase in extracellular AK activity)): 1
- fold induction at 50 µM ([7]; planktonic S. aureus, cutoff for positive-scoring molecules 3-fold increase, read-out: AK-based Prestwick Library Screening Results, S. aureus (increase in extracellular AK activity)): 0.4
